Results from the NIST ThermoML archive (doi:10.1021/je034102r).
± gives the expanded uncertainty stated by the source.

Assay: molar heat capacity at saturation pressure
Settings: Small (less than 1 g) adiabatic calorimetry

## CCCCn1cc[n+](C)c1.F[P-](F)(F)(F)(F)F [1-butyl-3-methylimidazolium hexafluorophosphate]
110.13 K, Crystal
  molar heat capacity: 163.1 ± 0.92 J/K/mol
112.28 K, Glass
  molar heat capacity: 180.3 ± 1 J/K/mol
112.77 K, Crystal
  molar heat capacity: 165.8 ± 0.92 J/K/mol
114.54 K, Glass
  molar heat capacity: 183.2 ± 1 J/K/mol
115.37 K, Crystal
  molar heat capacity: 168.1 ± 0.92 J/K/mol
116.84 K, Glass
  molar heat capacity: 185.7 ± 1 J/K/mol
117.92 K, Crystal
  molar heat capacity: 170.7 ± 0.92 J/K/mol
119.11 K, Glass
  molar heat capacity: 188.2 ± 1 J/K/mol
120 K, Crystal
  molar heat capacity: 172.9 ± 0.92 J/K/mol
120 K, Glass
  molar heat capacity: 189.1 ± 1 J/K/mol
120.6 K, Crystal
  molar heat capacity: 173.4 ± 0.92 J/K/mol
121.35 K, Glass
  molar heat capacity: 190.5 ± 1 J/K/mol
123.41 K, Crystal
  molar heat capacity: 176.3 ± 0.92 J/K/mol
123.71 K, Glass
  molar heat capacity: 193.2 ± 1 J/K/mol
126.17 K, Crystal
  molar heat capacity: 178.9 ± 1 J/K/mol
126.2 K, Glass
  molar heat capacity: 195.8 ± 1.1 J/K/mol
128.66 K, Glass
  molar heat capacity: 198.4 ± 1.1 J/K/mol
128.89 K, Crystal
  molar heat capacity: 181.8 ± 1 J/K/mol
130 K, Crystal
  molar heat capacity: 182.8 ± 0.92 J/K/mol
130 K, Glass
  molar heat capacity: 200 ± 1 J/K/mol
131.16 K, Glass
  molar heat capacity: 201.3 ± 1.1 J/K/mol
131.56 K, Crystal
  molar heat capacity: 184.6 ± 1 J/K/mol
133.7 K, Glass
  molar heat capacity: 204.1 ± 1.1 J/K/mol
134.28 K, Crystal
  molar heat capacity: 187.2 ± 1 J/K/mol
136.2 K, Glass
  molar heat capacity: 207.1 ± 1.1 J/K/mol
137.03 K, Crystal
  molar heat capacity: 190.2 ± 1 J/K/mol
138.67 K, Glass
  molar heat capacity: 209.8 ± 1.1 J/K/mol
139.75 K, Crystal
  molar heat capacity: 193 ± 1 J/K/mol
140 K, Crystal
  molar heat capacity: 193.1 ± 1 J/K/mol
140 K, Glass
  molar heat capacity: 211 ± 1.1 J/K/mol
141.19 K, Glass
  molar heat capacity: 212.4 ± 1.2 J/K/mol
142.43 K, Crystal
  molar heat capacity: 195.6 ± 1.1 J/K/mol
143.75 K, Glass
  molar heat capacity: 215.3 ± 1.2 J/K/mol
145.07 K, Crystal
  molar heat capacity: 198.5 ± 1.1 J/K/mol
146.28 K, Glass
  molar heat capacity: 217.9 ± 1.2 J/K/mol
147.68 K, Crystal
  molar heat capacity: 201.1 ± 1.1 J/K/mol
148.93 K, Glass
  molar heat capacity: 220.9 ± 1.2 J/K/mol
150 K, Crystal
  molar heat capacity: 203.7 ± 1 J/K/mol
150 K, Glass
  molar heat capacity: 222.2 ± 1.1 J/K/mol
150.26 K, Crystal
  molar heat capacity: 204.1 ± 1.1 J/K/mol
151.7 K, Glass
  molar heat capacity: 224.2 ± 1.2 J/K/mol
152.8 K, Crystal
  molar heat capacity: 206.7 ± 1.1 J/K/mol
154.44 K, Glass
  molar heat capacity: 226.9 ± 1.2 J/K/mol
155.32 K, Crystal
  molar heat capacity: 209.6 ± 1.1 J/K/mol
157.14 K, Glass
  molar heat capacity: 230.1 ± 1.2 J/K/mol
157.81 K, Crystal
  molar heat capacity: 212.4 ± 1.2 J/K/mol
159.81 K, Glass
  molar heat capacity: 233.2 ± 1.2 J/K/mol
160 K, Crystal
  molar heat capacity: 214.6 ± 1.1 J/K/mol
160 K, Glass
  molar heat capacity: 233.6 ± 1.2 J/K/mol
160.34 K, Crystal
  molar heat capacity: 214.8 ± 1.2 J/K/mol
162.53 K, Glass
  molar heat capacity: 236.6 ± 1.2 J/K/mol
162.92 K, Crystal
  molar heat capacity: 217.8 ± 1.2 J/K/mol
165.29 K, Glass
  molar heat capacity: 239.8 ± 1.2 J/K/mol
165.46 K, Crystal
  molar heat capacity: 220.6 ± 1.2 J/K/mol
168.02 K, Glass
  molar heat capacity: 243.1 ± 1.2 J/K/mol
168.07 K, Crystal
  molar heat capacity: 223.6 ± 1.2 J/K/mol
170 K, Crystal
  molar heat capacity: 225.7 ± 1.1 J/K/mol
170 K, Glass
  molar heat capacity: 245.7 ± 1.2 J/K/mol
170.71 K, Crystal
  molar heat capacity: 226.4 ± 1.2 J/K/mol
170.72 K, Glass
  molar heat capacity: 246.4 ± 1.3 J/K/mol
173.34 K, Crystal
  molar heat capacity: 229.6 ± 1.2 J/K/mol
173.39 K, Glass
  molar heat capacity: 249.7 ± 1.3 J/K/mol
175.93 K, Crystal
  molar heat capacity: 232.7 ± 1.2 J/K/mol
176.04 K, Glass
  molar heat capacity: 253 ± 1.3 J/K/mol
177.26 K, Glass
  molar heat capacity: 254.8 ± 1.3 J/K/mol
178.5 K, Crystal
  molar heat capacity: 235.4 ± 1.2 J/K/mol
180 K, Crystal
  molar heat capacity: 237.2 ± 1.2 J/K/mol
180 K, Glass
  molar heat capacity: 258.1 ± 1.2 J/K/mol
180.15 K, Glass
  molar heat capacity: 258.7 ± 1.3 J/K/mol
181.04 K, Crystal
  molar heat capacity: 238.3 ± 1.2 J/K/mol
183.09 K, Glass
  molar heat capacity: 263.9 ± 1.4 J/K/mol
183.56 K, Crystal
  molar heat capacity: 241.2 ± 1.2 J/K/mol
186.06 K, Crystal
  molar heat capacity: 244.3 ± 1.2 J/K/mol
186.06 K, Glass
  molar heat capacity: 273 ± 1.4 J/K/mol
188.53 K, Crystal
  molar heat capacity: 247.2 ± 1.3 J/K/mol
188.97 K, Glass
  molar heat capacity: 285 ± 1.5 J/K/mol
190 K, Crystal
  molar heat capacity: 248.8 ± 1.2 J/K/mol
190 K, Glass
  molar heat capacity: 270.5 ± 1.2 J/K/mol
190.6 K, Glass
  molar heat capacity: 271.2 ± 1.2 J/K/mol
190.6 K, Liquid
  molar heat capacity: 352.9 ± 1.6 J/K/mol
190.98 K, Crystal
  molar heat capacity: 249.9 ± 1.3 J/K/mol
191.7 K, Glass
  molar heat capacity: 322.8 ± 1.7 J/K/mol
193.42 K, Crystal
  molar heat capacity: 252.8 ± 1.3 J/K/mol
194.24 K, Glass
  molar heat capacity: 351 ± 1.8 J/K/mol
194.81 K, Crystal
  molar heat capacity: 254.5 ± 1.3 J/K/mol
196.8 K, Liquid
  molar heat capacity: 355.5 ± 1.8 J/K/mol
197.49 K, Crystal
  molar heat capacity: 257.7 ± 1.3 J/K/mol
199.36 K, Liquid
  molar heat capacity: 356.4 ± 1.8 J/K/mol
200 K, Crystal
  molar heat capacity: 260.7 ± 1.2 J/K/mol
200 K, Liquid
  molar heat capacity: 356.9 ± 1.7 J/K/mol
200.29 K, Crystal
  molar heat capacity: 260.8 ± 1.3 J/K/mol
201.91 K, Liquid
  molar heat capacity: 357.9 ± 1.8 J/K/mol
203.07 K, Crystal
  molar heat capacity: 264.4 ± 1.4 J/K/mol
204.58 K, Liquid
  molar heat capacity: 359.1 ± 1.8 J/K/mol
